In ChEMBL document CHEMBL4725288, “Modulation of TRPV4 and BKCa for treatment of brain diseases” (Bioorg Med Chem, 2020):

Experiments:
[1] = target: Transient receptor potential cation channel subfamily V member 4 (Homo sapiens, UniProt Q9HBA0); assay: Antagonist activity at human TRPV4
[2] = Inhibition of TNP-ADP binding to SERCA (unknown origin) by UV dual-wavelength spectrophotometer; design: species or system Homo sapiens

Sequence of Transient receptor potential cation channel subfamily V member 4 (Q9HBA0 whole entry): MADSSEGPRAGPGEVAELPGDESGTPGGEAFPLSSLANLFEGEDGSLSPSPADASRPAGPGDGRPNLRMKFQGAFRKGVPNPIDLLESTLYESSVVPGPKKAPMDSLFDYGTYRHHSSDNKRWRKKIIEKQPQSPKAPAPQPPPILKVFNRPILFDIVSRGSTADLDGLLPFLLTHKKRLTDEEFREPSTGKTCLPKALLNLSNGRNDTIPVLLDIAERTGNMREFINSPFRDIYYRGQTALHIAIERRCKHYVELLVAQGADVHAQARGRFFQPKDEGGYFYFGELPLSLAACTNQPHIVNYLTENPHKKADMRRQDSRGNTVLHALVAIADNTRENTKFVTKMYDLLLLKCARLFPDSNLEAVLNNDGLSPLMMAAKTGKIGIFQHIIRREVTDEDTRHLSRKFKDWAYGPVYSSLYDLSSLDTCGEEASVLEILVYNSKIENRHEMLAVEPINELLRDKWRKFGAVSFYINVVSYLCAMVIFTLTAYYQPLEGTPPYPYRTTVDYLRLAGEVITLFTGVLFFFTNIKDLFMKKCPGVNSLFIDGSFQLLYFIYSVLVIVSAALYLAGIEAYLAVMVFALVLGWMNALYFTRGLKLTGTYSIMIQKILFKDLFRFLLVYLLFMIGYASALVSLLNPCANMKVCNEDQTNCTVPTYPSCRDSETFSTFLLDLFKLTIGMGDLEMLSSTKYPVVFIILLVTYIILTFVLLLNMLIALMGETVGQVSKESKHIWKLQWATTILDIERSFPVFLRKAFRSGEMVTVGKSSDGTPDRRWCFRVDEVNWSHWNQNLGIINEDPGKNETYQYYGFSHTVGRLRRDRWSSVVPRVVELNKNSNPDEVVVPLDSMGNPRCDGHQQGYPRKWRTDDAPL

Cc1c(C(=O)Nc2cccc(C(F)(F)F)c2)cc(-c2ccccc2)n1CCCN1CCOCC1 gave an IC50 [1] of 18 nM.
In the case of CC(C)(O)[C@H]1O[C@H]2CC[C@@]3(C)[C@@](O)(CC[C@H]4Cc5c([nH]c6ccccc56)[C@@]43C)C2=CC1=O [PAXILLINE], the IC50 [2] is reported as 5000 nM.
